Source: patent US10039816B2, “Siderophore-based immunization against gram-negative bacteria” (Massachusetts Institute of Technology, priority 2014, dated 2018)

Experiments:
[1] = coupling reaction conditions
Lipocalin-2 (LCN2) = Lipocalin-2 (LCN2) (Homo sapiens, UniProt P80188); details: e.g., sub-nanomolar or low-nanomolar for ferric enterobactin; cited from earlier work
Glu-Ent = format: in vivo; details: Peyer's patch cells, day 21 post-immunization; not in mock-immunized mice
S. Typhimurium = format: in vivo, Salmonella enterica serovar Typhimurium; details: for weight loss: C57BL/6 mice, 4 days after infection with 1×10^9 CFU S. Typhimurium, P=0.05
enterobactin (Ent) = experiment: ELISA for fecal anti-enterobactin IgA in immunized mice; format: in vivo, C57BL/6 mice; details: 14-21 days post-immunization, persisted up to 51 days post-immunization
Ent = format: in vivo; details: Peyer's patch cells, day 21 post-immunization; not in mock-immunized mice
salmochelin (Glu-Ent) = experiment: ELISA/dot blot for fecal anti-salmochelin IgA in immunized mice; format: in vivo, C57BL/6 mice; details: day 21 post-immunization
[2] = intranasal, first immunization and boost 14 days later; monitored up to 51 days; no sign of disease
intestinal microbiota = experiment: Microbiota analysis (16S rDNA, Illumina MiSeq) of colon content of immunized mice; format: in vivo; details: for Lactobacillus spp. fraction of the microbiota: immunized, infected mice, day 4; for S. Typhimurium fraction of the intestinal microbes: mice infected with S. Typhimurium for 4 days
[3] = system: pro-inflammatory cytokines (IL-17, IL-22), Lcn2; format: in vivo; details: infected vs uninfected mice
[4] = responders, 96 h after infection

Lipocalin-2 (LCN2), sequence (P80188 21-198, species assumed): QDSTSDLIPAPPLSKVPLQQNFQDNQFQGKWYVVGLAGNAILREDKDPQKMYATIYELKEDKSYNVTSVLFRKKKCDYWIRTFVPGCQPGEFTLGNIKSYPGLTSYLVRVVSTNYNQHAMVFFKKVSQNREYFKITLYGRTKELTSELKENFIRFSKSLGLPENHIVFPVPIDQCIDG

## O=C(N[C@H]1COC(=O)[C@@H](NC(=O)c2cccc(O)c2O)COC(=O)[C@@H](NC(=O)c2cccc(O)c2O)COC1=O)c1cccc(O)c1O [Enterobactin, enterobactin]
[1]
  hydrolysis of the trilactone ring in aqueous solution: slowly undergoes hydrolysis

## O=C(N[C@H]1COC(=O)[C@@H](NC(=O)c2cccc([O-])c2[O-])COC(=O)[C@@H](NC(=O)c2cccc([O-])c2[O-])COC1=O)c1cccc([O-])c1[O-].[Fe+3] [ferric enterobactin]
Lipocalin-2 (LCN2)
  capture by LCN2: high affinity

## CTB-Ent
Glu-Ent
  spots representing Glu-Ent-antibody complexes (ELISPOT): detected
S. Typhimurium
  weight loss: ~6%
S. Typhimurium; in vivo
  bacterial burden of S. Typhimurium in the colon content: lower bacterial burden
S. Typhimurium; [4]
  Salmonella burden, Peyer's patches: lower Salmonella burden
  Salmonella burden, spleen: lower Salmonella burden
  Salmonella burden, terminal ileum: lower Salmonella burden
Enterobactin (Ent)
  specific anti-Ent IgA antibodies in feces (ELISA): detected
Ent
  spots representing Ent-antibody complexes (ELISPOT): detected
Salmochelin (Glu-Ent)
  IgA binding to Glu-Ent (di-glucosylated form) in fecal samples: detected
[2]
  tolerability of the two immunizations: well tolerated
Intestinal microbiota
  Lactobacillus spp. fraction of the microbiota: ~60%
  S. Typhimurium fraction of the intestinal microbes: 7%
Intestinal microbiota; vs low level in mock-immunized mice
  level of Escherichia spp.: further reduced
[3]
  expression of pro-inflammatory cytokines (IL-17, IL-22) and Lcn2 in response to infection: similarly upregulated

## Cholera toxin B subunit [CTB, reference compound]
S. Typhimurium
  weight loss: ~10%
Intestinal microbiota
  Lactobacillus spp. fraction of the microbiota: ~19%
  S. Typhimurium fraction of the intestinal microbes: ca. 32%
[3]
  expression of pro-inflammatory cytokines (IL-17, IL-22) and Lcn2 in response to infection: similarly upregulated

## salmochelins
Lipocalin-2 (LCN2)
  capture by LCN2: cannot capture
